In publication PMC11056982, “Paraptotic Cell Death as an Unprecedented Mode of Action Observed for New Bipyridine-Silver(I) Compounds Bearing Phosphane Coligands” (Journal of Medicinal Chemistry, 2024):

Assays:
SK-OV-3/CBP = experiment: MTT viability assay in carboplatin-resistant SK-OV-3/CBP cells; assay type: cell-based, human; conditions: 72 h; resistant subline vs parental line
Experimental: (§1) Cells were seeded (2 × 10^4 cells/well for HCT116, HCT116/OxR, 3 × 10^4 cells/well for HCT116 p53KO, 4 × 10^4 cells/well for MES-OV, SK-OV-3, and their respective CBP resistant counterparts) in 100 μL/well in 96-well plates and allowed to attach for 24 h at 37 °C and 5% CO2. Compounds were first dissolved in DMSO to a 10 mM stock solution and then further diluted in a growth medium (DMSO concentration <1%). After 24 h, cells were treated with 100 μL of different drugs dilutions in triplicates with the final concentrations of 0, 0.01, 0.05, 0.075, 0.1, 0.5, 0.75, 1, 2.5, 5, 7.5, and 10 μM depending on the compound and the cell line.

MES-OV/CBP = experiment: MTT viability assay in carboplatin-resistant MES-OV/CBP cells; assay type: cell-based, human; conditions: 72 h; resistant subline vs parental line
Experimental: as §1

HCT116 WT/OxR = experiment: MTT viability assay in oxaliplatin-resistant HCT116 WT/OxR cells; assay type: cell-based, human; conditions: 72 h; resistant subline vs parental line
Experimental: as §1

recombinant rat TrxR = molecular target: T1, recombinant rat TrxR (Rattus norvegicus, UniProt O89049); experiment: Inhibition of mammalian TrxR (microplate reader-based DTNB assay); assay type: biochemical; conditions: cell-free assay
T1 construct: purchased Cayman Chemical
T1 sequence (O89049 1-499): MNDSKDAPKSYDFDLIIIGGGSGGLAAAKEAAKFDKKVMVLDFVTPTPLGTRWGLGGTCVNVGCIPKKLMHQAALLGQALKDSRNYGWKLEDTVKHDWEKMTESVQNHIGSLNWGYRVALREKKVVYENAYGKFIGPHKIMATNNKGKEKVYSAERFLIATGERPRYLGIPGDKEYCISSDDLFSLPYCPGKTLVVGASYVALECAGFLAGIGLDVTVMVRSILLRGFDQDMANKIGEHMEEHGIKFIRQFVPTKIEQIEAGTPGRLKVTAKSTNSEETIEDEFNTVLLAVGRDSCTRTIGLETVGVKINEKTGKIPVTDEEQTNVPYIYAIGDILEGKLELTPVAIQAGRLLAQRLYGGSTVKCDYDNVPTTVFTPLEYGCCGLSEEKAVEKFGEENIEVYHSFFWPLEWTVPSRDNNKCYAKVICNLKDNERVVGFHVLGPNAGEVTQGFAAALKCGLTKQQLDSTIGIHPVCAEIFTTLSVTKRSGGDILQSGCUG
Experimental: To determine the inhibition of mammalian TrxR, an established microplate reader-based assay was performed. For this purpose, commercially available recombinant rat TrxR (from Cayman Chemical) was used and diluted with distilled water to achieve a concentration of 0.12 U mL^–1. The compounds were freshly dissolved as stock solutions in DMSO. Aliquots (25 μL) of the enzyme solution and 25 μL of potassium phosphate buffer (pH 7.0) containing the compounds in graded concentrations (1% DMSO) were mixed. Positive controls were composed of 25 μL aliquots of the enzyme solution mixed with 25 μL 1% DMSO in buffer solution (no compounds). The final concentration of DMSO was 0.5% v/v in all samples. The blank solution was the highest used concentration of the compound in 0.5% DMSO in buffer solution (no enzyme). All resulting solutions were incubated with moderate shaking for 75 min at 37 °C in a 96-well plate. […] After proper mixing, the formation of 2-nitro-5-thiobenzoate (5-TNB) was monitored with a microplate reader at 405 nm 10 times in 35 s intervals for about 6 min. The increase in 5-TNB concentration over time followed a linear trend, and the enzymatic activities were calculated as the slopes (increase in absorbance per second) thereof. […] For the absorption measurements in the enzyme assay, a PerkinElmer 2030 Multilabel Reader VICTORTMX4 was used.

MES-OV cells [1] = experiment: Mitochondrial membrane potential by JC-1 stain (flow cytometry); assay type: cell-based, human; conditions: 24 h, 10 μM
Experimental: (§2) Cells were seeded in a density of (2–4) × 10^5 cells/well in six-well plates and in 1 mL culture medium containing 10% FBS. After 24 h recovery, cells were treated with the indicated compounds and concentrations. Next, the supernatant was collected followed by trypsinization of the cells and centrifugation at 300g for 5 min. In the following protocols, cells were stained with annexin V (AV) and propidium iodide (PI) for cell death analysis, with only PI for cell cycle analysis, or with 10 μg mL^–1 JC-1 for evaluation of the mitochondrial membrane potential as previously described.[54],[55]

MES-OV cells [2] = experiment: ROS detection by DCF-DA flow cytometry in MES-OV; assay type: cell-based, human; conditions: 24 h
Experimental: Cells were seeded 5 × 10^5 cells/mL in six-well plates. After 24 h treatment with the indicated concentration, cells were incubated with 10 μM 2′,7′-dichlorofluorescein diacetate (DCFH-DA, Sigma-Aldrich) in Hank’s balanced salt solution for 1 h at 37 °C. Subsequently, flow cytometry (with BD LSR Fortessa instrument, BD Biosciences, Franklin Lakes, NJ, USA) was performed to measure the median fluorescence signal of 20,000 single cells per sample. FlowJo (BD Biosciences, San Jose, CA, USA) and GraphPad Prism software (GraphPad Software Inc., San Diego, CA, USA) were to analyze the data.

SK-OV-3 = experiment: Cell death by annexin V/propidium iodide stain (flow cytometry); assay type: cell-based, human; conditions: SK-OV-3, 10 μM, 24 h
Experimental: as §2

[3] = Stability in PBS by LC-ESI(+)-HRMS/MS; assay type: physicochemical; conditions: 80 μM in PBS, monitored 48 h
Experimental: For the stability evaluation in PBS, 10 mM solutions of complexes 1, 4, and 7 were first prepared in DMSO. Two microliters of this solution were then added to PBS (250 μL) for a total concentration of 80 μM. Following centrifugation for 10 min at 3000 rpm, the resulting solutions were monitored by LC-ESI(+)-MS and LC-ESI(+)-HRMS for a period of 48 h.

MES-OV cells [4] = experiment: TEM analysis of subcellular morphology; assay type: cell-based, human; conditions: 24 h treatment
Experimental: MES-OV Cells were seeded (8 × 10^5 cells/mL) in […] in six-well plates. After 24 h, cells were treated with the selected compounds at the indicated concentration for another 24 h. Afterward, cells were collected, pelleted, and fixed in a solution of 2.5% glutaraldehyde and 2% paraformaldehyde in 0.1 M cacodylate buffer (pH 7.4) for 2 h at room temperature. Samples were subsequently washed 3 × 10 min in cacodylate buffer and postfixed in 1% osmium tetroxide for 1 h. After 3 × 10 min washing in cacodylate buffer, samples were dehydrated in an ethanol series (30–100%, 10 min each) and pure acetone (2 × 10 min) and gradually embedded in Epon 812 resin (Serva). Sections (40–50 nm) were prepared with a Leica UC7 ultramicrotome, mounted on copper mesh grids, and contrasted with 1% uranyl acetate (7 min) and 3% lead citrate (3 min). Imaging was performed with a Tecnai G2 20 transmission electron microscope at 80 kV equipped with an FEI Eagle 4K CCD camera (Center for Anatomy and Cell Biology). Image processing was performed in Fiji[57] using the CLAHE filter (enhance local contrast).

MES-OV cells [5] = experiment: Phase-contrast microscopy of cytoplasmic vacuoles; assay type: cell-based, human; conditions: 6 and 24 h treatment
Experimental: Cells were seeded 5 × 10^5/well in six-well plates after 24 h recovery treatment with compounds 1, 4, and 7 was performed with the indicated concentrations. After 6 and 24 h, phase-contrast images of the cells were taken with a Zeiss Primovert microscope (20× magnification). To determinate the percentage of vacuolated cells, images (three images each condition) were analyzed by ImageJ, and vacuolated cells were counted.

SK-OV-3 and MES-OV cells = experiment: Cell cycle distribution (PI stain, flow cytometry); assay type: cell-based, human; conditions: 10 μM, 24 h
Experimental: as §2

O=S(=O)([O-])C(F)(F)F.[Ag+].c1ccc(-c2ccccn2)nc1.c1ccc(P(c2ccccc2)c2ccccc2)cc1 [Compound 1, [Ag(2,2′-bipy)(PPh3)][CF3SO3]]
relative resistance (IC50 SK-OV-3/CBP divided by IC50 SK-OV-3) (SK-OV-3/CBP): 1.6^n.s.
relative resistance (IC50 MES-OV/CBP divided by IC50 MES-OV) (MES-OV/CBP): 1.0^n.s.
relative resistance (IC50 HCT116 WT/OxR divided by IC50 HCT116 WT) (HCT116 WT/OxR): 0.7^n.s.
TrxR inhibition strength relative to 7 (recombinant rat TrxR): 10 fold
cells with mitochondrial depolarization (low Δψ fraction) (MES-OV cells [1]): 50%
ROS levels (in words) (MES-OV cells [2]): significant and very strong elevation in ROS was found only in the 10 μM sample
apoptosis induction (AV/PI) (SK-OV-3): up to 100%
stability in PBS [3]: an equilibrium is established between the parent complex and AgP2 and AgN2 species
vacuole diameter (TEM) (MES-OV cells [4]): 300–500 nm
cytoplasmic vacuole formation (phase contrast) (MES-OV cells [5]): distinctly fewer vesicles of smaller and distinctive shapes
cell cycle distribution change (SK-OV-3 and MES-OV cells): significant shift from the G0–G1 phase to the S phase
